Tests used:
[1] = biological target: T1, Human HDAC1 (Homo sapiens, UniProt Q13547); test: HDAC1 inhibition assay (fluorogenic p53 peptide substrate); assay type: biochemical; conditions: Table 1; performed by Reaction Biology Corporation; read-out: HDAC isoform IC50 (nM) 1
T1 construct: Full length with C-terminal GST tag, MW=79.9 kDa; GST (C); host or cells: Sf9 insect cells (baculovirus)
Procedure: (§1) The HDAC1, 2, 4, 5, 6, 7, 8, 9, 10, and 11 assays used isolated recombinant human protein; HDAC3/NcoR2 complex was used for the HDAC3 assay. Substrate for HDAC1, 2, 3, 6, 10, and 11 assays is a fluorogenic peptide from p53 residues 379-382 (RHKKAc); substrate for HDAC8 is fluorogenic diacyl peptide based on residues 379-382 of p53 (RHKAcKAc). Acetyl-Lys(trifluoroacetyl)-AMC substrate was used for HDAC4, 5, 7, and 9 assays. Compounds were dissolved in DMSO and tested in 10-dose IC50 mode with 3-fold serial dilution starting at 30 μM. Control Compound Trichostatin A (TSA) was tested in a 10-dose IC50 with 3-fold serial dilution starting at 5 μM. IC50 values were extracted by curve-fitting the dose/response slopes. Assays were performed in duplicate and IC50 values are an average of data from both experiments.
Human HDAC1 (GenBank Accession No. NM_004964): Full length with C-terminal GST tag, MW=79.9 kDa, expressed by baculovirus expression system in Sf9 cells. Enzyme is in 50 mM Tris-HCl, pH 8.0, 138 mM NaCl, 20 mM glutathione, and 10% glycerol, and stable for >6 months at −80° C. Purity is >10% by SDS-PAGE. Specific Activity is 20 U/μg, where one U=1 pmol/min under assay condition of 25 mM Tris/Cl, pH8.0, 137 mM NaCl, 2.7 mM KCl, 1 mM MgCl2, 0.1 mg/ml BSA, 100 μM HDAC substrate, and 13.2 ng/μl HDAC1, incubation for 30 min at 30° C.
(§2) Substrate for HDAC1 and HDAC6: Acetylated peptide substrate for HDAC, based on residues 379-382 of p53 (Arg-His-Lys-Lys(Ac)), a site of regulatory acetylation by the p300 and CBP acetyltransferases (lysines 381, 382)1-6, is the best for HDAC from among a panel of substrates patterned on p53, histone H3 and histone H4 acetylation sites7.
(§3) Reaction Buffer: 50 mM Tris-HCl, pH 8.0, 137 mM NaCl, 2.7 mM KCl, 1 mM MgCl2, 1 mg/ml BSA.
HDAC1: 75 nM HDAC1 and 50 μM HDAC substrate are in the reaction buffer and 1% DMSO final. Incubate for 2 hours at 30° C.
(§4) All IC50 values are automatically calculated using the GraphPad Prism version 5 and Equation of Sigmoidal dose-response (variable slope): Y=Bottom+(Top−Bottom)/(1+10^((Log EC50−X)*HillSlope)), where X is the logarithm of concentration, Y is the response, Y starts at Bottom and goes to Top with a sigmoid shape. In most cases, “Bottom” is set 0, and “Top” is set “less than 120%”. This is identical to the “four parameter logistic equation”. IC50 curves also are drawn using the GraphPad Prism, and IC50 values and Hill slopes are provided.
(§5) HDAC Activity Assays: HDAC assay is performed using fluorescently-labeled acetylated substrate, which comprises an acetylated lysine side chain. After incubation with HDAC, deacetylation of the substrate sensitizes the substrate such that, in a second step, treatment with the detection enzyme produces a fluorophore. HDACs 1 and 6 were expressed as full length fusion proteins. Purified proteins were incubated with 50 μM fluorescently-labeled acetylated peptide substrate and test compound for 2 hours at RT in HDAC assay buffer containing 50 mM Tris-HCl (pH 8.0), 137 mM NaCl, 2.7 mM KCl, 1 mM MgCl2, 1% DMSO, and 1% BSA.
(§6) Reactions were terminated by the addition of the Developer after 2 hours, and the development of fluorescence signal, which was relative to the amount of deacetylated peptide, was monitored by time-course measurement of EnVision (PerkinElmer). The HDAC activity was estimated from the slope of time-course measurement of the fluorescence intensity. The slope of no-enzyme control (substrate alone) was served as background, and % Enzyme activity was calculated using background-subtracted slope of no inhibitor control (DMSO) as 100% activity.

[2] = biological target: T2, Human HDAC6 (Homo sapiens, UniProt Q9UBN7); test: HDAC6 inhibition assay (fluorogenic p53 peptide substrate); assay type: biochemical; conditions: Table 1; performed by Reaction Biology Corporation; read-out: HDAC isoform IC50 (nM) 6
T2 construct: Full length with N-terminal GST tag, MW=159 kDa; GST (N); host or cells: Sf9 insect cells (baculovirus)
T2 sequence (Q9UBN7 1-1215): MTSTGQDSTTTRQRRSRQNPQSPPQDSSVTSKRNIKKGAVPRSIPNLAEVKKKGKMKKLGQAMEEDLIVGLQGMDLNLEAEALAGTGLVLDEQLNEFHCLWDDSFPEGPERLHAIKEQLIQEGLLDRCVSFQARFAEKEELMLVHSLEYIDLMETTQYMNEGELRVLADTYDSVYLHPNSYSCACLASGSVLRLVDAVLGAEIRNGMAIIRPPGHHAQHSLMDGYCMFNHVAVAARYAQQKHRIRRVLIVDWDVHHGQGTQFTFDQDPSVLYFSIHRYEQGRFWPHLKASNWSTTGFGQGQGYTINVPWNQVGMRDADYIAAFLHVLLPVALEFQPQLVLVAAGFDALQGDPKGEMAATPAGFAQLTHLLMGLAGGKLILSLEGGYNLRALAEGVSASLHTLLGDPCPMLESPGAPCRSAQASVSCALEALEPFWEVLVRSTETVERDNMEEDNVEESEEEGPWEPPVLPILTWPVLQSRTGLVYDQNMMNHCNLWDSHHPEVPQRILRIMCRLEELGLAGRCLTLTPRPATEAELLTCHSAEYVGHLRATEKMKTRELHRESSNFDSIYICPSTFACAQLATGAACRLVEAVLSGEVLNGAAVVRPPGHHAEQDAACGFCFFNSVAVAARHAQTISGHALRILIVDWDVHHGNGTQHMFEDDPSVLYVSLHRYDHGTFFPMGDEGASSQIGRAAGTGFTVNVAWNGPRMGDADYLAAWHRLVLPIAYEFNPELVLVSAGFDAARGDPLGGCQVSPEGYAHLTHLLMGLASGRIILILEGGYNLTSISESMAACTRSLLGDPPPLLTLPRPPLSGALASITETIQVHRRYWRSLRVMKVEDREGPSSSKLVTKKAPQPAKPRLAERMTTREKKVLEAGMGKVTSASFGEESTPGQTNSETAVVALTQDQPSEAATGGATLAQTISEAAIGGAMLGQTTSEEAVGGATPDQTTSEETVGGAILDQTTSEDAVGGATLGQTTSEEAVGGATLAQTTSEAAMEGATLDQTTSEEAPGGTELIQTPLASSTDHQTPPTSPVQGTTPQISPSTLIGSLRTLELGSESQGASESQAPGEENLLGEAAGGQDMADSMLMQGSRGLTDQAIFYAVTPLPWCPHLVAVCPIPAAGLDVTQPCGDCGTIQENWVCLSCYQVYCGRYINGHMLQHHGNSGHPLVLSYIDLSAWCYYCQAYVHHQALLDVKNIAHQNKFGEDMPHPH
Procedure: as §1
Human HDAC6 (GenBank Accession No. BC069243): Full length with N-terminal GST tag, MW=159 kDa, expressed by baculovirus expression system in Sf9 cells. Enzyme is in 50 mM Tris-HCl, pH 8.0, 138 mM NaCl, 20 mM glutathione, and 10% glycerol, and stable for >6 months at −80° C. Purity is >90% by SDS-PAGE. Specific Activity is 50 U/μg, where one U=1 pmol/min under assay condition of 25 mM Tris/Cl, pH8.0, 137 mM NaCl, 2.7 mM KCl, 1 mM MgCl2, and 0.1 mg/ml BSA, 30 μM HDAC substrate, and 5 ng/μl HDAC6, incubation for 60 min at 30° C.
as §2, §3
HDAC6: 12.6 nM HDAC6 and 50 μM HDAC substrate are in the reaction buffer and 1% DMSO final. Incubate for 2 hours at 30° C.
as §4, §5, §6

[3] = system: HIF-1α; test: HIF1 activation, ODD reporter assay; assay type: cell-based; conditions: measured at 10 μM
Procedure: (§7) The present compounds were evaluated for an ability to activate Nrf2 and HIF-1α. Table 1 summarizes Nrf2 activation data obtained in Neh2-luc reporter assay; and HIF1 activation measured in ODD reporter assay.

[4] = system: Nrf2; test: Nrf2 activation, Neh2-luc reporter assay; assay type: cell-based; conditions: measured at 10 μM
Procedure: as §7

T1 sequence (Q13547 whole entry, canonical isoform): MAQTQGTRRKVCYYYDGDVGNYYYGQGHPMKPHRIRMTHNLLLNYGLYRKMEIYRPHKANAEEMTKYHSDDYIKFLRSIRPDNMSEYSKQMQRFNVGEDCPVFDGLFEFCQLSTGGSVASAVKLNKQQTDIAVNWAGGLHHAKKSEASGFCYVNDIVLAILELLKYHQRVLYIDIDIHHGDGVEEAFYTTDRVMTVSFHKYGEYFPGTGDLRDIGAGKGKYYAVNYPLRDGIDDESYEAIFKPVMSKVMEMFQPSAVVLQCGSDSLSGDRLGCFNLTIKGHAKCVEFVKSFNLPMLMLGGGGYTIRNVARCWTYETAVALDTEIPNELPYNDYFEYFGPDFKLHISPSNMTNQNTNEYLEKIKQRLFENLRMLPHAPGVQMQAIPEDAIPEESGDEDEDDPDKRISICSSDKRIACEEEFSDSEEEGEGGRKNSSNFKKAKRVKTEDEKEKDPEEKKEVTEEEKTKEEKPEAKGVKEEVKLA

## O=C(NO)c1ccc(CNc2nc3ccccc3n2-c2ccccc2)cc1 [II-ING-87, N-hydroxy-4-(((1-phenyl-1H-benzo[d]imidazol-2-yl)amino)methyl)benzamide]
[1]
  IC50: 3230 nM
[2]
  IC50: 13 nM
[3]
  fold induction at 10 µM: 1
[4]
  fold induction at 10 µM: 1.2

## Cn1c(NCc2ccc(C(=O)NO)cc2)nc2cc(Cl)ccc21 [II-ING-85, 4-(((5-chloro-1-methyl-1H-benzo[d]imidazol-2-yl)amino)methyl)-N-hydroxybenzamide]
[1]
  IC50: 1500 nM
[2]
  IC50: 2.7 nM
[3]
  fold induction at 10 µM: 1.1
[4]
  fold induction at 10 µM: 1.3

## C[N+]1(C)CCC2(CC1)C(=O)N(Cc1ccc(C(=O)NO)cc1)c1ccccc12 [II-ING-118]
[1]
  IC50: 7880 nM
[2]
  IC50: 5.8 nM
[3]
  fold induction at 10 µM: 1.3
[4]
  fold induction at 10 µM: 2

## O=C(NO)c1ccc(CN2CCc3cc(Cl)ccc32)cc1F [II-ING-51, 4-((5-Chloroindolin-1-yl)methyl)-2-fluoro-N-hydroxybenzamide]
[2]
  IC50: 40.2 nM
[3]
  fold induction at 10 µM: 7.2
[4]
  fold induction at 10 µM: 1.6

## O=C(NO)c1ccc(CN2CCc3ccc(OCc4ccccc4)cc32)cc1 [II-ING-61, 4-((6-(Benzyloxy)indolin-1-yl)methyl)-N-hydroxybenzamide]
[1]
  IC50: 1850 nM
[2]
  IC50: 25.2 nM
[3]
  fold induction at 10 µM: 7
[4]
  fold induction at 10 µM: 2.2

## O=C(NO)c1ccc(CN2CCc3cc([N+](=O)[O-])ccc32)cc1 [II-ING-57, N-Hydroxy-4-((5-nitroindolin-1-yl)methyl)benzamide]
[1]
  IC50: 1970 nM
[2]
  IC50: 1.4 nM
[3]
  fold induction at 10 µM: 3.9
[4]
  fold induction at 10 µM: 6.6

## CC1(C)C(=O)N(Cc2ccc(C(=O)NO)cc2)c2ccccc21 [II-ING-101, 4-((3,3-Dimethyl-2-oxoindolin-1-yl)methyl)-N-hydroxybenzamide]
[1]
  IC50: 7880 nM
[2]
  IC50: 5.1 nM
[3]
  fold induction at 10 µM: 1
[4]
  fold induction at 10 µM: 3.4

## CC1(C)CN(Cc2ccc(C(=O)NO)cc2)c2ccccc21 [II-ING-65, 4-((3,3-Dimethylindolin-1-yl)methyl)-N-hydroxybenzamide]
[1]
  IC50: 18700 nM
[2]
  IC50: 24.5 nM
[3]
  fold induction at 10 µM: 2.8
[4]
  fold induction at 10 µM: 1.8

## O=C(NO)c1ccc(CN2CC3(CC3)c3cc(F)ccc32)cc1 [II-ING-68, 4-((5′-Fluorospiro[cyclopropane-1,3′-indolin]-1′-yl)methyl)-N-hydroxybenzamide]
[1]
  IC50: 4700 nM
[2]
  IC50: 8.2 nM
[3]
  fold induction at 10 µM: 5.8
[4]
  fold induction at 10 µM: 6.2

## O=C(NO)c1ccc(CN2CCc3cc(F)c(Cl)cc32)cc1 [II-ING-56, 4-((6-Chloro-5-fluoroindolin-1-yl)methyl)-N-hydroxybenzamide]
[1]
  IC50: 7820 nM
[2]
  IC50: 4.6 nM
[3]
  fold induction at 10 µM: 7.8
[4]
  fold induction at 10 µM: 5.5

## C[N+]1(C)CCC2(CC1)C(=O)N(Cc1ccc(C(=O)NO)cc1)c1ccccc12 [II-ING-109, 1-(4-(Hydroxycarbamoyl)benzyl)-1′,1′-dimethyl-2-oxospiro[indoline-3,4′-piperidin]-1′-ium]
[1]
  IC50: 19700 nM
[2]
  IC50: 18 nM
[3]
  HIF-1α fold activation: 1.0 fold
[4]
  Nrf2 fold activation: 1.5 fold

## O=C(NO)c1cccc(CN2C(=O)C(F)(F)c3ccccc32)c1 [II-ING-100, 3-((3,3-Difluoro-2-oxoindolin-1-yl)methyl)-N-hydroxybenzamide]
[1]
  IC50: ≥ 30000 nM
[2]
  IC50: 5560 nM
[3]
  fold induction at 10 µM: 1
[4]
  fold induction at 10 µM: 1.5
